From patent US20050239841A1, “New compounds” (priority 2003, published 2005)
Where a name gives a salt, the structure may show the parent alone.

Molecular target: T1, human MCH1R receptor (Homo sapiens, UniProt Q99705)
T1 construct: host or cells: CHO-K1
Experiment: MCH1R receptor binding by SPA ([125I]-MCH displacement)
Conditions: 0.2 nM [125I]-MCH, membranes of CHO-K1 cells expressing hMCH1 receptor, WGA SPA beads; Ki calculated from IC50
Description: The compounds according to the invention were evaluated for their binding to the human MCH1R receptor by the following method:
Compounds: MCH peptide was purchased from Phoenix pharmaceuticals. (Phe^13, [^125I]Tyr^19 Melanine-Concentrating Hormone (human, mouse, rat) ([^125I]-MCH) was obtained from NEN life Science Products. Inc. Boston, Mass. Wheat germ agglutinine SPA beads (RPNQ 0001) were obtained from Amersham-Pharmacia Biotech. All other reagents used are of highest purity from different resources available. Protein Kits, Micro BCA™ Protein Assay Reagent Kit (Cat No. 23235) were purchased from Piece, Rockford, Ill., USA.
CHO-K1 cells expressing hMCH1 receptor were purchased from Euroscreen.
CHO-K1 hMCHR1 (Euroscreen, Brussels, Belgium, # ES-370-C) were cultivated in Nutrient mixture Ham's F-12 with Glutamax I (Gibco-BRL #31765-027) supplemented with 10% heat-inactivated foetal calf serum (FCS, Gibco-BRL #10108-165) and 400 μg/ml geniticin (Gibco-BRL #1140-0359). The cells were sub-cultivated twice weekly with split ratio=1:20-1:30. For membrane preparation the cells were cultured in […] and the cells were harvested when 90% confluent.
When the cells reached more than 90% confluence, dishes (500 cm^2) were rinsed twice with 20 ml PBS (Ca^2+ and Mg^2+ free). Buffer A, which contains Tris.HCl (15), MgCl2.6H2O (2), EDTA (0.3), EGTA (1) in mM with pH 7.5, 25 ml was added and cells were suspended using a window scraper. The cells were collected in 50 ml Falcon tube pre-cooled on ice and then centrifuged for 3 minutes at 1500 g at 4° C. […]
The radio labeled [^125I]-MCH was diluted with cold MCH in ratio 1:3. […] The results were calculated using Excel program and the curves were drawn using a program GraphPad Prism.
For screening of the substances the amount of the beads used was 0.25 mg/well and the amount of the membrane protein was 4 μg/well 0.2 nM of labeled MCH was used. […] The samples were counted using Microbeta counter (Wallac Trilux 1450 Micro beta counter, Wallac, Finland) for 2 minutes and the results were calculated by using the computer program Activity Base. […]

T1 sequence (Q99705 whole entry): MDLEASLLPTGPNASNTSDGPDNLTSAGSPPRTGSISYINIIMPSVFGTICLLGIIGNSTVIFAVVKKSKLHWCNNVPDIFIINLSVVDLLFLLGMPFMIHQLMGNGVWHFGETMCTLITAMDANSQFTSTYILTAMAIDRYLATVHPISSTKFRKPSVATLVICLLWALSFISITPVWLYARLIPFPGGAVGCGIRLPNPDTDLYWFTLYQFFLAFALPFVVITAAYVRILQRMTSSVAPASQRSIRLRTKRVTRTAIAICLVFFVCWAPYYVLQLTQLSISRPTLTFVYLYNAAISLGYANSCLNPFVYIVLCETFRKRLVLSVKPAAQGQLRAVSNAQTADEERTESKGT

SMILES | Ki [nM]
CCOc1ccc([C@@]23CC[C@@H](NC(=O)Nc4ccc(F)c(F)c4)C[C@@H]2N(C)CC3)cc1OCC (relative stereo) [Example 208, N-[(3aS*,6R*,7aS*)-3a-(3,4-diethoxyphenyl)-1-methyloctahydro-1H-indol-6-yl]-N′-(3,4-difluoro]henyl)urea trifluoroacetate] | 258
C=CCN(C(=O)Nc1ccc(Cl)c(C(F)(F)F)c1)C1CCC2(c3ccc(OC)c(OC)c3)CCN(C)C2C1 (stereo not drawn) [Example 159, N-ally-N′-[4-chloro-3-(trifluoromethyl)phenyl]-N-[(3aS*,6R*,7aS*)-3a-(3,4-dimethoxyphenyl)-1-methyloctahydro-1H-indol-6-yl]urea] | 75
COc1ccc([C@@]23CC[C@@H](NC(=O)Nc4ccc(OC(F)(F)F)cc4)C[C@@H]2N(C)CC3)cc1OC (relative stereo) [Example 70, N-[(3aS*,6R*,7aS*)-3a-(3,4-dimethoxyphenyl)-1-methyloctahydro-1H-indol-6-yl]-N′-[4-(trifluoromethoxy)phenyl]urea trifluoroacetate] | 52
